Laboratory results reported in patent US9133158B2, “Bicyclic dihydroisoquinoline-1-one derivatives” (Hoffmann-La Roche Inc., priority 2011, dated 2015).

What was measured:
human CYP11B2 = target: T1, human CYP11B2 (Homo sapiens, UniProt P19099); test: G-402 cellular enzyme assay, human CYP11B2 (aldosterone release, HTRF); type: cell-based; details: G-402 cells, 1 μM Deoxycorticosterone
T1 construct: expressed in transfected cells
T1 sequence (P19099 25-503): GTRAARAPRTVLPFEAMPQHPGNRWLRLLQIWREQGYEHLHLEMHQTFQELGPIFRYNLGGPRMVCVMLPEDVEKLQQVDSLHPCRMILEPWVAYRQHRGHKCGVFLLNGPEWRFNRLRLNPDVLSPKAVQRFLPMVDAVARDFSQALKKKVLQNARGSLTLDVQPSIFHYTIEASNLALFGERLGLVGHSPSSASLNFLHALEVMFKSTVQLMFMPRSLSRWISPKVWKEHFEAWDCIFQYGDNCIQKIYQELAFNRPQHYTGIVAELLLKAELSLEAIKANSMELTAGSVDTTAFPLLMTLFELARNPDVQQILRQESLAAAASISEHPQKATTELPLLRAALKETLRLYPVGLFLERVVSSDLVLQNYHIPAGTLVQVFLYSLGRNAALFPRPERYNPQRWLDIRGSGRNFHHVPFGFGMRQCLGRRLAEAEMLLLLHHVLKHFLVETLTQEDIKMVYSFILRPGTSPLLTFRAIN
Text: (§1) Herein we identified the use of the G-402 cell line as a host cell to ectopically express (transiently or stably) enzymes of the CYP11 family. Specifically we developed stable G-402 cells expressing ectopically human CYP11B1, human CYP11B2, human CYP11A1, cynmolgus CYP11B1 or cynomolgus CYP11B2 enzyme activity. Importantly the identified cell line G-402 expresses co-factors (adrenodoxin and adrenodoxin reductase) important for the activity of the CYP11 family and no relevant enzyme activity of the CYP11 family (in comparison to H295R cells) was detected in these cells. Therefore the G-402 cell line is uniquely suited as a host cell for the ectopic expression of enzymes from the CYP11 family.
(§2) G-402 cells can be obtained from ATCC(CRL-1440) and were originally derived from a renal leiomyoblastoma.
(§3) The expression plasmids contain the ORF for either human/cyno CYP11B1 or CYP11B2 under the control of a suitable promoter (CMV-promoter) and a suitable resistance marker (neomycin). Using standard techniques the expression plasmid is transfected into G-402 cells and these cells are then selected for expressing the given resistance markers. Individual cell-clones are then selected and assessed for displaying the desired enzymatic activity using 11-Deoxycorticosterone (Cyp11B2) or 11-Deoxycortisol (Cyp11B1) as a substrate.
(§4) G-402 cells expressing CYP11 constructs were established as described above and maintained in McCoy's 5a Medium Modified, ATCC Catalog No. 30-2007 containing 10% FCS and 400 μg/ml G418 (Geneticin) at 37° C. under an atmosphere of 5% CO2/95% air.
(§5) Cellular enzyme assays were performed in DMEM/F12 medium containing 2.5% charcoal treated FCS and appropriate concentration of substrate (0.3-10 uM 11-Deoxycorticosterone, 11-Deoxycortisol or Corticosterone). For assaying enzymatic activity, cells were plated onto 96 well plates and incubated for 16 h. An aliquot of the supernatant is then transferred and analyzed for the concentration of the expected product (Aldosterone for CYP11B2; Cortisol for CYP11B1). The concentrations of these steroids can be determined using HTRF assays from CisBio analyzing either Aldosterone or Cortisol.
(§6) Inhibition of the release of produced steroids can be used as a measure of the respective enzyme inhibition by test compounds added during the cellular enzyme assay. The dose dependent inhibition of enzymatic activity by a compound is calculated by means of plotting added inhibitor concentrations (x-axes) vs. measured steroid/product level (y-axes). The inhibition is then calculated by fitting the following 4-parameter sigmoidal function (Morgan-Mercer-Flodin (MMF) model) to the raw data points using the least squares method:
(§7) [formula] wherein, A is the maximum y value, B is the EC50 factor determined using XLFit, C is the minimum y value and D is the slope value.
(§8) EC50 values for compounds claimed herein were tested with the G402-based assay system described. Cyp11B2 enzyme activity was tested in presence of 1 μM Deoxycorticosterone and variable amounts of inhibitors; Cyp11B1 enzyme activity was tested in presence of 1 μM Deoxycortisol and variable amounts of inhibitors.

human CYP11B1 = target: T2, human CYP11B1 (Homo sapiens, UniProt P15538); test: G-402 cellular enzyme assay, human CYP11B1 (cortisol release, HTRF); type: cell-based; details: G-402 cells, 1 μM Deoxycortisol
T2 construct: expressed in transfected cells
T2 sequence (P15538 25-503): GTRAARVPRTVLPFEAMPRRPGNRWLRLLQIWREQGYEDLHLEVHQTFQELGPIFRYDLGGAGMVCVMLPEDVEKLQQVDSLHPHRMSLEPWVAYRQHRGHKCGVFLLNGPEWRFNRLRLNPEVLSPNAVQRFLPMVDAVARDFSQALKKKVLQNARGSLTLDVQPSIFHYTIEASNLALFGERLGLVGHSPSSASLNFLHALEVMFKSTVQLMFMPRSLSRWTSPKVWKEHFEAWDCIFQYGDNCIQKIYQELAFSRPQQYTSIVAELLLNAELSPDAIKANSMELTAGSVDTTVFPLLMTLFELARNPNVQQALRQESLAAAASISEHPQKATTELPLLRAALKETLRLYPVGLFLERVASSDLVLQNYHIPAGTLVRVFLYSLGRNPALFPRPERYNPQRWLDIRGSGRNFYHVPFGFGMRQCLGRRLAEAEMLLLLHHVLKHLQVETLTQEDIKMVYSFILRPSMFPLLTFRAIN
Text: as §1, §2, §3, §4, §5, §6, §7, §8

Compound	EC50 (human CYP11B2) [nM]	EC50 (human CYP11B1) [µM]
CCC1c2ccc(Cl)cc2C(=O)N1c1cncc(F)c1 (single isomer, unassigned) [Example 307, (S or R)-6-Chloro-3-ethyl-2-(5-fluoro-pyridin-3-yl)-2,3-dihydro-isoindol-1-one]	389	15.4
COc1ccc2c(c1)CCN(c1cccnc1)C2=O [Example 94, 6-Methoxy-2-pyridin-3-yl-3,4 dihydro-2H-isoquinolin-1-one]	2060	
CC1(C)CN(c2cccnc2)C(=O)c2ccc(Cl)cc21 [Example 102, 6-Chloro-4,4-dimethyl-2-pyridin-3-yl-3,4-dihydro-2H-isoquinolin-1-one]	1540	
CC1c2ccc(Cl)cc2C(=O)N1c1cccnc1 (centres unmarked) [Example 119, 6-Chloro-3-methyl-2-pyridin-3-yl-2,3-dihydro-isoindol-1-one]	722	
CS(=O)(=O)Nc1cncc(N2CCc3cc(Cl)ccc3C2=O)c1 [Example 220, N-[5-(6-Chloro-1-oxo-3,4-dihydro-1H-isoquinolin-2-yl)-pyridin-3-yl]-methanesulfonamide]	1080	
CCC(=O)Nc1cncc(N2CCc3cc(Cl)ccc3C2=O)c1 [Example 225, N-[5-(6-Chloro-1-oxo-3,4-dihydro-1H-isoquinolin-2-yl)-pyridin-3-yl]-propionamide]	2550	
CC(C)(Nc1cncc(N2CCc3cc(Cl)ccc3C2=O)c1)C(=O)O [Example 227, 2-[5-(6-Chloro-1-oxo-3,4-dihydro-1H-isoquinolin-2-yl)-pyridin-3-ylamino]-2-methyl-propionic acid]	4210	
O=C1c2ccc(Cl)cc2CCN1c1cncc(-c2ccc(Cl)c(Cl)c2)c1 [Example 241, 6-Chloro-2-[5-(3,4-dichloro-phenyl)-pyridin-3-yl]-3,4-dihydro-2H-isoquinolin-1-one]	582	
O=C(Nc1cncc(N2CCc3cc(Cl)ccc3C2=O)c1)C1CC1 [Example 248, Cyclopropanecarboxylic acid [5-(6-chloro-1-oxo-3,4-dihydro-1H-isoquinolin-2-yl)-pyridin-3-yl]-amide]		2.65
CN(C)C(=O)COc1cncc(N2CCc3cc(Cl)ccc3C2=O)c1 [Example 256, 2-[5-(6-Chloro-1-oxo-3,4-dihydro-1H-isoquinolin-2-yl)-pyridin-3-yloxy]-N,N-dimethyl-acetamide]	774	
CN1CCN(Cc2ccncc2N2CCc3cc(Cl)ccc3C2=O)CC1 [Example 280, 6-Chloro-2-[4-(4-methyl-piperazin-1-ylmethyl)-pyridin-3-yl]-3,4-dihydro-2H-isoquinolin-1-one]	1800	

Next, values leading:

EC50 (human CYP11B2) [nM]	EC50 (human CYP11B1) [µM]	Compound
26.3	2.57	CCC1c2cc(Cl)ccc2C(=O)N1c1cncc2c1CCCC2NS(C)(=O)=O (mixture of isomers) [Example 346, N-[4-(5-Chloro-3-ethyl-1-oxo-1,3-dihydro-isoindol-2-yl)-5,6,7,8-tetrahydro-isoquinolin-8-yl]-methanesulfonamide]
1050	31	CCS(=O)(=O)NC1CCCc2c1cncc2N1Cc2cc(Cl)ccc2C1=O (racemic) [Example 315, Ethanesulfonic acid [4-(5-chloro-1-oxo-1,3-dihydro-isoindol-2-yl)-5,6,7,8-tetrahydro-isoquinolin-8-yl]-amide]
52.8	2.66	CCC(=O)NC1CCCc2c1cncc2N1C(=O)c2ccc(Cl)cc2C1(C)C (racemic) [Example 468, N-[4-(6-Chloro-1,1-dimethyl-3-oxo-1,3-dihydro-isoindol-2-yl)-5,6,7,8-tetrahydro-isoquinolin-8-yl]-propionamide]
380	26.3	CCC1c2ccc(Cl)cc2C(=O)N1c1cncc(F)c1 (single isomer, unassigned) [Example 308, (R or S)-6-Chloro-3-ethyl-2-(5-fluoro-pyridin-3-yl)-2,3-dihydro-isoindol-1-one]
16	2.45	CCC1c2cc(Cl)ccc2C(=O)N1c1cncc(F)c1 (single isomer, unassigned) [Example 309, (R or S)-5-Chloro-3-ethyl-2-(5-fluoro-pyridin-3-yl)-2,3-dihydro-isoindol-1-one]
16.5	3.97	CCC1c2cc(Cl)ccc2C(=O)N1c1cncc(F)c1 (single isomer, unassigned) [Example 310, (S or R)-5-Chloro-3-ethyl-2-(5-fluoro-pyridin-3-yl)-2,3-dihydro-isoindol-1-one]
48.2	4.01	CCC(=O)N[C@@H]1CCCc2c1cncc2N1C(=O)c2cc(Cl)ccc2[C@H]1CC (single isomer, unassigned) [Example 312, N-[(R or S)-4-((R or S)-5-Chloro-1-ethyl-3-oxo-1,3-dihydro-isoindol-2-yl)-5,6,7,8-tetrahydro-isoquinolin-8-yl]-propionamide]
118	3.54	CCC(=O)N[C@@H]1CCCc2c1cncc2N1C(=O)c2cc(Cl)ccc2[C@@H]1CC (single isomer, unassigned) [Example 313, N-[(R or S)-4-((S or R)-5-Chloro-1-ethyl-3-oxo-1,3-dihydro-isoindol-2-yl)-5,6,7,8-tetrahydro-isoquinolin-8-yl]-propionamide]
28.2	5.23	CCC(=O)NC1CCCc2c1cncc2N1Cc2cc(Cl)ccc2C1=O (single isomer, unassigned) [Example 314, N-[(R or S)-4-(5-Chloro-1-oxo-1,3-dihydro-isoindol-2-yl)-5,6,7,8-tetrahydro-isoquinolin-8-yl]-propionamide]
55.6	3.99	CC(=O)NC1CCCc2c1cncc2N1CCc2cc(Cl)ccc2C1=O (single isomer, unassigned) [Example 321, N-((S or R)-6-Chloro-1-oxo-3,4,5′,6′,7′,8′-hexahydro-1H-[2,4′]biisoquinolinyl-8′-yl)-acetamide]
5140	39.6	CC(=O)NC1CCCc2c1cncc2N1Cc2cc(Cl)ccc2C1=O (single isomer, unassigned) [Example 322, N-[(S or R)-4-(5-Chloro-1-oxo-1,3-dihydro-isoindol-2-yl)-5,6,7,8-tetrahydro-isoquinolin-8-yl]-acetamide]
893		CCOc1ccc2c(n1)C(C)(C)N(c1cncc(CNc3cc[nH]n3)c1)C2=O [Example 385, 2-Ethoxy-7,7-dimethyl-6-{5-[(1H-pyrazol-3-ylamino)-methyl]-pyridin-3-yl}-6,7-dihydro-pyrrolo[3,4-b]pyridin-5-one]
